ChEMBL document CHEMBL3885861, “Open TG-GATES”

Organism: Rattus norvegicus
Assay: Open TG-GATES - Regimen: Single
Type: toxicity, organism-based, Sprague-Dawley
Parameters: regimen Single, gender Male, age 6 weeks
Conditions: in vivo, po, 0 mg/kg, route gavage, dose level Control; for APTT / Bas / Eos / Fbg / Hb / Ht / Lym / MCH / MCHC / MCV / Mono / Neu / PT / Plat / RBC / Ret / WBC: tissue Blood; for KIDNEY_L / KIDNEY_R / KIDNEY_TOTAL: tissue Kidney; for LIVER: tissue Liver; for A/G / ALP / ALT / AST / BUN / CRE / Ca / Cl / DBIL / GLC / IP / K / LDH / Na / PL / RALB / TBIL / TC / TG / TP / gamma-GTP: tissue Plasma

## CN(C)CCN(Cc1cccs1)c1ccccn1
3 h
  TERMINAL_BW: 183.4 g
  APTT: 20.4 s
  Bas: 0%
  Eos: 0.4%
  Fbg: 308 mg/dL
  Hb: 13.1 g/dL
  Ht: 40.4%
  Lym: 76.8%
  MCH: 20.9 pg
  MCHC: 32.5%
  MCV: 64.2 fL
  Mono: 2.4%
  Neu: 20%
  PT: 16.5 s
  Plat: 124.4 x10_4/uL
  RBC: 629.4 x10_4/ul
  Ret: 7.8%
  WBC: 76.5 x10_2/uL
  KIDNEY_L: 0.8 g
  KIDNEY_R: 0.9 g
  KIDNEY_TOTAL: 1.7 g
  LIVER: 8.4 g
  A/G: 1.2
  ALP: 1580.4 IU/L
  ALT: 41.4 IU/L
  AST: 72.8 IU/L
  BUN: 14.4 mg/dL
  CRE: 0.2 mg/dL
  Ca: 10.3 mg/dL
  Cl: 107.4 meq/L
  DBIL: 0 mg/dL
  GLC: 181.8 mg/dL
  IP: 7.7 mg/dL
  K: 4.2 meq/L
  LDH: 227 IU/L
  Na: 142.8 meq/L
  PL: 127.6 mg/dL
  RALB: 2.9 g/dL
  TBIL: 0.008 mg/dL
  TC: 70.4 mg/dL
  TG: 42.6 mg/dL
  TP: 5.3 g/dL
  gamma-GTP: 1 IU/L
6 h
  TERMINAL_BW: 186.2 g
  APTT: 20.7 s
  Bas: 0%
  Eos: 0.4%
  Fbg: 303 mg/dL
  Hb: 12.6 g/dL
  Ht: 38.6%
  Lym: 84.6%
  MCH: 21 pg
  MCHC: 32.7%
  MCV: 64.1 fL
  Mono: 1.6%
  Neu: 12.4%
  PT: 17.2 s
  Plat: 119.7 x10_4/uL
  RBC: 603 x10_4/ul
  Ret: 7.8%
  WBC: 97.9 x10_2/uL
  KIDNEY_L: 0.9 g
  KIDNEY_R: 0.9 g
  KIDNEY_TOTAL: 1.7 g
  LIVER: 8.3 g
  A/G: 1.2
  ALP: 1742 IU/L
  ALT: 37.4 IU/L
  AST: 68.4 IU/L
  BUN: 10.8 mg/dL
  CRE: 0.2 mg/dL
  Ca: 10 mg/dL
  Cl: 106.2 meq/L
  DBIL: 0 mg/dL
  GLC: 174.2 mg/dL
  IP: 9 mg/dL
  K: 4.1 meq/L
  LDH: 171.6 IU/L
  Na: 141.8 meq/L
  PL: 127.2 mg/dL
  RALB: 2.9 g/dL
  TBIL: 0.016 mg/dL
  TC: 74.8 mg/dL
  TG: 44.6 mg/dL
  TP: 5.3 g/dL
  gamma-GTP: 1 IU/L
9 h
  TERMINAL_BW: 180.7 g
  APTT: 20.7 s
  Bas: 0%
  Eos: 0.8%
  Fbg: 296.8 mg/dL
  Hb: 13 g/dL
  Ht: 39.3%
  Lym: 82.2%
  MCH: 21.1 pg
  MCHC: 33.1%
  MCV: 63.9 fL
  Mono: 1.6%
  Neu: 14.8%
  PT: 15.6 s
  Plat: 121.1 x10_4/uL
  RBC: 615.8 x10_4/ul
  Ret: 7.7%
  WBC: 69.3 x10_2/uL
  KIDNEY_L: 0.8 g
  KIDNEY_R: 0.8 g
  KIDNEY_TOTAL: 1.6 g
  LIVER: 7.3 g
  A/G: 1.2
  ALP: 1371.8 IU/L
  ALT: 33.8 IU/L
  AST: 66.4 IU/L
  BUN: 11.2 mg/dL
  CRE: 0.2 mg/dL
  Ca: 10.1 mg/dL
  Cl: 106.8 meq/L
  DBIL: 0 mg/dL
  GLC: 177.8 mg/dL
  IP: 9.6 mg/dL
  K: 4.2 meq/L
  LDH: 171.2 IU/L
  Na: 142.4 meq/L
  PL: 133.2 mg/dL
  RALB: 2.9 g/dL
  TBIL: 0.018 mg/dL
  TC: 73.4 mg/dL
  TG: 59.4 mg/dL
  TP: 5.3 g/dL
  gamma-GTP: 1 IU/L
24 h
  TERMINAL_BW: 200.8 g
  APTT: 20.1 s
  Bas: 0%
  Eos: 0.8%
  Fbg: 280.8 mg/dL
  Hb: 12.9 g/dL
  Ht: 39.1%
  Lym: 79.2%
  MCH: 21.2 pg
  MCHC: 33%
  MCV: 64.3 fL
  Mono: 2.4%
  Neu: 17%
  PT: 16.5 s
  Plat: 120.3 x10_4/uL
  RBC: 608.2 x10_4/ul
  Ret: 8%
  WBC: 89.7 x10_2/uL
  KIDNEY_L: 0.9 g
  KIDNEY_R: 0.9 g
  KIDNEY_TOTAL: 1.8 g
  LIVER: 9.4 g
  A/G: 1.2
  ALP: 1802.6 IU/L
  ALT: 41.6 IU/L
  AST: 71.8 IU/L
  BUN: 16.8 mg/dL
  CRE: 0.2 mg/dL
  Ca: 11 mg/dL
  Cl: 105.6 meq/L
  DBIL: 0.002 mg/dL
  GLC: 188 mg/dL
  IP: 7.4 mg/dL
  K: 4.4 meq/L
  LDH: 206.4 IU/L
  Na: 142.4 meq/L
  PL: 149.8 mg/dL
  RALB: 3 g/dL
  TBIL: 0.018 mg/dL
  TC: 77.8 mg/dL
  TG: 92.6 mg/dL
  TP: 5.4 g/dL
  gamma-GTP: 1 IU/L
